Consider twelve compounds from US9586928B2 (The Scripps Research Institute, priority 2011, dated 2017).

One assay concerns the target T1, LXR (Homo sapiens, UniProt Q13133).
T1 sequence (Q13133 209-447 limits assumed): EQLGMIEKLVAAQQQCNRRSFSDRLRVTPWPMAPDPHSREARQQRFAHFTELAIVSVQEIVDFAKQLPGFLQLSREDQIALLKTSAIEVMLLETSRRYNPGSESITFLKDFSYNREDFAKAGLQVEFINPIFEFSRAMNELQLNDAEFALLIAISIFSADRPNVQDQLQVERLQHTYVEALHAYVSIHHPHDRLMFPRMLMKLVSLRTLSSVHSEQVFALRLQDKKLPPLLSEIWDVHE
Description: Gal4-LXRα / UAS luciferase cotransfection assay. Type of assay: cell-based. To be noted: 10 μM.

The target of the next assay is T2, GST-RORγ (Homo sapiens, UniProt P51449).
T2 construct: 1 μg of GST-RORγ-LBD, 5 nM of [3H]T1317 as radioligand
T2 sequence (P51449 269-508 limits assumed): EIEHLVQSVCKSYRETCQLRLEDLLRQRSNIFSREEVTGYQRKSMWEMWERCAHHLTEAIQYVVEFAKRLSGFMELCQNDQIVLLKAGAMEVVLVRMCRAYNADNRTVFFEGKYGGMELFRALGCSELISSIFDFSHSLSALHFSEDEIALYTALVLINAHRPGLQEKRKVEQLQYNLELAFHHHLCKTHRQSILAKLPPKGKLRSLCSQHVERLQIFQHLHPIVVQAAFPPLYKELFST
In words: RORγ scintillation proximity (SPA) radioligand binding assay, displacement of [3H]-T0901317. To be noted: for IC50: displacement of 5 nM [3H]-T0901317 from GST-RORγ; for remaining activity at 10 µM: 10 μM compound, read-out: RORγ SPA % bound = % radiolabel bound. On the technique in general: SPA uses beads or plates that emit light when radiolabelled molecules are held near them.

The next assay concerns VP16. In words: Gal4 DBD-VP16 / UAS luciferase control assay. Type of assay: cell-based. To be noted: 10 μM.
The target in a further assay is T3, RORα (Homo sapiens, UniProt P35398).
T3 construct: expressed in transfected cells; host or cells: HEK293T
T3 sequence (P35398 272-510 limits assumed): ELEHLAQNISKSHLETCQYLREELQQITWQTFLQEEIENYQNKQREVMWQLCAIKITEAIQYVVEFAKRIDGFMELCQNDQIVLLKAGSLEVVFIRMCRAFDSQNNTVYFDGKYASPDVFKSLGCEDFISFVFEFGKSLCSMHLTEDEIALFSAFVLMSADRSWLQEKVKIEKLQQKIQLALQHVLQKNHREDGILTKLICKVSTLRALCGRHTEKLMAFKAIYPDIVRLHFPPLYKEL
In words: Gal4-RORα LBD / UAS luciferase cotransfection assay. Type of assay: cell-based. The following applies: 10 μM.

A further assay addresses T4, RORγ (Homo sapiens, UniProt P51449).
T4 construct: expressed in transfected cells; host or cells: HEK293T
T4 sequence (P51449 269-508 limits assumed): T2 sequence (P51449 269-508 limits assumed)
In words: Gal4-RORγ LBD / UAS luciferase cotransfection assay. To be noted: for RORγ repression, fold change over DMSO: 10 μM. Type of assay: cell-based.

Each structure is given as a SMILES string.

Description for RORα: (§1) The cells were treated with either DMSO or various compounds as indicated four hours after replating. Following additional 20 hour incubation, luciferase levels were assayed by one-step addition of 20 μL BriteLite (Perkin Elmer) and read using an Envision multilabel plate reader (Perkin Elmer).
Cotransfection assays were performed as previously described in HEK293 cells (Gal4 cotransfection assay or IL-17 luciferase reporter)[8]. HEK293 and the mouse lymphoma EL4 (ATCC) cells were maintained in DMEM supplemented with 10% FBS plus antibiotics (penicillin and streptomycin; Invitrogen).
Description for VP16: as §1

Regarding `Cc1cc(-c2ccc(C(O)(C(F)(F)F)C(F)(F)F)cc2)ccc1CN1CCN(Cc2ccncc2)CC1` [Compound 94, 1,1,1,3,3,3-Hexafluoro-2-(3′-methyl-4′-((4-(pyridin-4-ylmethyl)piperazin-1-yl)methyl)-[1,1′-biphenyl]-4-yl)propan-2-ol], the “LXR activation, fold change over DMSO” value at LXR is on record as 0.8 fold change over DMSO. Besides, on GST-RORγ, the IC50 (in general, the midpoint of a concentration-inhibition curve) is 0.23 µM. For the same compound, the “VP16 repression, fold change over DMSO” value with VP16 came to 0.8 fold change over DMSO. In addition, at RORα, the “RORα repression, fold change over DMSO” value was found to be 0.5 fold change over DMSO. At RORγ, the “RORγ repression, fold change over DMSO” value is given as 0.05 fold change over DMSO.

`OC(c1ccc(-c2ccc(CN3CCN(Cc4cncs4)CC3)cc2)cc1)(C(F)(F)F)C(F)(F)F` [Compound 114, 1,1,1,3,3,3-Hexafluoro-2-(4′-((4-(thiazol-5-ylmethyl)piperazin-1-yl)methyl)-[1,1′-biphenyl]-4-yl)propan-2-ol]: the “LXR activation, fold change over DMSO” value on LXR was 0.63 fold change over DMSO. Further, the remaining activity at 10 µM at GST-RORγ stood at 50%. The “VP16 repression, fold change over DMSO” value in the assay with VP16 came to 0.92 fold change over DMSO. At RORα, the “RORα repression, fold change over DMSO” value is 0.79 fold change over DMSO. The “RORγ repression, fold change over DMSO” value at RORγ was found to be 0.87 fold change over DMSO.

On to `OC(c1ccc(-c2ccc(CN3CCN(Cc4ccncc4Cl)CC3)cc2)cc1)(C(F)(F)F)C(F)(F)F` [Compound 92], for which the “LXR activation, fold change over DMSO” value on LXR came out at 5 fold change over DMSO. For the same compound, on GST-RORγ, the remaining activity at 10 µM was 25%. For the same compound, the “VP16 repression, fold change over DMSO” value in the assay on VP16 was 0.6 fold change over DMSO. In addition, the “RORα repression, fold change over DMSO” value at RORα came to 0.7 fold change over DMSO. At RORγ, the “RORγ repression, fold change over DMSO” value turned out to be 0.1 fold change over DMSO.

As for `O=C(c1ccc(-c2ccc(C(O)(C(F)(F)F)C(F)(F)F)cc2)cc1)N1CCN(Cc2ccncc2)CC1` [Compound 100, (4′-(1,1,1,3,3,3-Hexafluoro-2-hydroxypropan-2-yl)-[1,1′-biphenyl]-4-yl)(4-(pyridin-4-ylmethyl)piperazin-1-yl)methanone], on LXR, the “LXR activation, fold change over DMSO” value worked out at 0.8 fold change over DMSO. This compound also gave an IC50 on GST-RORγ of 1.7 µM. In addition, in the assay with VP16, the “VP16 repression, fold change over DMSO” value turned out to be 0.4 fold change over DMSO. For the same compound, the “RORα repression, fold change over DMSO” value at RORα was determined as 0.6 fold change over DMSO. The “RORγ repression, fold change over DMSO” value on RORγ is recorded as 0.1 fold change over DMSO.

`O=C(c1cscn1)N1CCN(Cc2ccc(-c3ccc(C(O)(C(F)(F)F)C(F)(F)F)cc3)cc2)CC1` [Compound 116, (4-((4′-(1,1,1,3,3,3-Hexafluoro-2-hydroxypropan-2-yl)-[1,1′-biphenyl]-4-yl)methyl)piperazin-1-yl)(thiazol-4-yl)methanone]: the “LXR activation, fold change over DMSO” value at LXR is given as 0.81 fold change over DMSO. The remaining activity at 10 µM on GST-RORγ came to 76%. Besides, the “VP16 repression, fold change over DMSO” value with VP16 was determined as 0.76 fold change over DMSO. Moreover, the “RORα repression, fold change over DMSO” value on RORα was found to be 0.56 fold change over DMSO. Besides, the “RORγ repression, fold change over DMSO” value on RORγ came out at 0.59 fold change over DMSO.

Turning to `OC(c1ccc(-c2ccc(CN3CCN(Cc4ccncc4Br)CC3)cc2)cc1)(C(F)(F)F)C(F)(F)F` [Compound 59, 2-(4′-((4-((3-Bromopyridin-4-yl)methyl)piperazin-1-yl)methyl)-[1,1′-biphenyl]-4-yl)-1,1,1,3,3,3-hexafluoropropan-2-ol], the “LXR activation, fold change over DMSO” value on LXR turned out to be 4 fold change over DMSO. Moreover, on GST-RORγ, the IC50 came out at 1.1 µM. Besides, the “VP16 repression, fold change over DMSO” value with VP16 was found to be 0.4 fold change over DMSO. The “RORα repression, fold change over DMSO” value at RORα is 0.4 fold change over DMSO. The “RORγ repression, fold change over DMSO” value at RORγ is on record as 0.05 fold change over DMSO.

For `OC(c1ccc(-c2ccc(CN3CCN(Cc4cscn4)CC3)cc2)cc1)(C(F)(F)F)C(F)(F)F` [Compound 115, 1,1,1,3,3,3-Hexafluoro-2-(4′-((4-(thiazol-4-ylmethyl)piperazin-1-yl)methyl)-[1,1′-biphenyl]-4-yl)propan-2-ol], the “LXR activation, fold change over DMSO” value at LXR is listed as 0.76 fold change over DMSO. The remaining activity at 10 µM on GST-RORγ came to 75%. Besides, the “VP16 repression, fold change over DMSO” value in the assay on VP16 is reported as 0.69 fold change over DMSO. The “RORα repression, fold change over DMSO” value on RORα was determined as 0.61 fold change over DMSO. On RORγ, the “RORγ repression, fold change over DMSO” value is on record as 0.31 fold change over DMSO.

Turning to `OC(c1ccc(-c2ccc(CN3CCN(Cc4ccncc4)CC3)cc2)cc1)(C(F)(F)F)C(F)(F)F` [Compound 1, 1,1,1,3,3,3-Hexafluoro-2-(4′-((4-(pyridin-4-ylmethyl)piperazin-1-yl)methyl)-[1,1′-biphenyl]-4-yl)propan-2-ol], the “LXR activation, fold change over DMSO” value at LXR stood at 1 fold change over DMSO. For the same compound, the IC50 on GST-RORγ was 0.15 µM; at RORγ (Gal4 cotransfection), 0.4 µM. Further, in the assay with VP16, the “VP16 repression, fold change over DMSO” value was determined as 1 fold change over DMSO. In addition, on RORα, the “RORα repression, fold change over DMSO” value was 1 fold change over DMSO.

Regarding `OC(c1ccc(-c2ccc(CN3CCC(Cc4ccc5c(c4)OCO5)CC3)cc2)cc1)(C(F)(F)F)C(F)(F)F` [Compound 88, 2-(4′-((4-(Benzo[d][1.3]dioxol-5-ylmethyl)piperidin-1-yl)methyl)-[1,1′-biphenyl]-4-yl)-1,1,1,3,3,3-hexafluoropropan-2-ol], the “LXR activation, fold change over DMSO” value at LXR turned out to be 1.3 fold change over DMSO. Moreover, at GST-RORγ, the remaining activity at 10 µM was 35%. The “VP16 repression, fold change over DMSO” value with VP16 stood at 0.3 fold change over DMSO. For the same compound, the “RORα repression, fold change over DMSO” value on RORα is on record as 0.6 fold change over DMSO. In addition, the “RORγ repression, fold change over DMSO” value at RORγ is on record as 0.2 fold change over DMSO.

With `COc1cc(-c2ccc(C(O)(C(F)(F)F)C(F)(F)F)cc2)ccc1CN1CCN(Cc2ccncc2)CC1` [Compound 97, 1,1,1,3,3,3-Hexafluoro-2-(3′-methoxy-4′-((4-(pyridin-4-ylmethyl)piperazin-1-yl)methyl)-[1,1′-biphenyl]-4-yl)propan-2-ol], the “LXR activation, fold change over DMSO” value at LXR was determined as 1 fold change over DMSO. Besides, the IC50 at GST-RORγ was 1.5 µM. The “VP16 repression, fold change over DMSO” value in the assay on VP16 was determined as 0.5 fold change over DMSO. Besides, the “RORα repression, fold change over DMSO” value on RORα came to 0.5 fold change over DMSO. The “RORγ repression, fold change over DMSO” value at RORγ is 0.05 fold change over DMSO.

As to `OC(c1ccc(-c2ccc(CN3CCN(Cc4ccncc4)CC3)c(F)c2)cc1)(C(F)(F)F)C(F)(F)F` [Compound 98, 1,1,1,3,3,3-Hexafluoro-2-(3′-fluoro-4′-((4-(pyridin-4-ylmethyl)piperazin-1-yl)methyl)-[1,1′-biphenyl]-4-yl)propan-2-ol], the “LXR activation, fold change over DMSO” value on LXR is 2 fold change over DMSO. The compound further displayed an IC50 on GST-RORγ of 1.5 µM. Besides, the “VP16 repression, fold change over DMSO” value in the assay on VP16 amounted to 0.65 fold change over DMSO. Moreover, on RORα, the “RORα repression, fold change over DMSO” value came to 0.8 fold change over DMSO. Also, the “RORγ repression, fold change over DMSO” value on RORγ worked out at 0.05 fold change over DMSO.

In the case of `OC(c1ccc(-c2ccc(CN3CCN(C4CC4)CC3)cc2)cc1)(C(F)(F)F)C(F)(F)F` [Compound 17, 2-(4′-((4-Cyclopropylpiperazin-1-yl)methyl)-[1,1′-biphenyl]-4-yl)-1,1,1,3,3,3-hexafluoropropan-2-ol], the “LXR activation, fold change over DMSO” value on LXR is on record as 0.75 fold change over DMSO. On GST-RORγ, the remaining activity at 10 µM was 20%. Also, the “VP16 repression, fold change over DMSO” value in the assay on VP16 came to 0.4 fold change over DMSO. Also, the “RORα repression, fold change over DMSO” value on RORα is recorded as 0.55 fold change over DMSO. For the same compound, the “RORγ repression, fold change over DMSO” value at RORγ was 0.25 fold change over DMSO.
